From ChEMBL document CHEMBL1156829 (Proc Natl Acad Sci U S A, 2008)

Assays:
Plasmodium falciparum [1] = test: NOVARTIS: Inhibition of Plasmodium falciparum 3D7 (drug-susceptible) proliferation in erythrocyte-based infection assay; format: functional, organism-based; settings: Plasmodium falciparum, 3D7
Plasmodium falciparum [2] = test: NOVARTIS: Inhibition of Plasmodium falciparum W2 (drug-resistant) proliferation in erythrocyte-based infection assay; format: functional, organism-based; settings: Plasmodium falciparum, W2; read-out: EC50
[3] = NOVARTIS: Cytotoxicity against human hepatocellular carcinoma cell line (Huh7); format: toxicity, cell-based, Huh-7; settings: Huh7 cells (hepatocellular carcinoma cell line)

Row | Structure (SMILES) | EC50 (Plasmodium falciparum [1]) [nM] | EC50 (Plasmodium falciparum [2]) [nM] | CC50 [3] [nM]
1 | O=C1/C(=C\c2ccccc2)SC(=Nc2ccccc2)N1C1CCCCC1 | 348 | 545 | > 100000
2 | Oc1cc(-c2ccccc2)nc2ccccc12 | 1060 | 547 | > 93200
3 | O=C(COc1ccccc1)NC(c1ccc([N+](=O)[O-])cc1)c1cc(Cl)c2cccnc2c1O (stereo not given) | 605 | 434 | > 80600
4 | Cc1cc(NC(=O)c2ccc(S(=O)(=O)N(Cc3ccccc3)C(C)C)cc2)no1 | 2690 | 538 | > 100000
5 | N=c1c2ccccc2nnn1-c1ccc(C(F)(F)F)cc1 | 392 | 575 | > 100000
6 | COc1ccc2c(c1)c(C)cc[n+]2Cc1ccccc1 | 86.2 | 118 | 20700
7 | O=c1cc[nH]c2cc(N3CCCCCC3)c(F)cc12 | 1310 | 497 | > 92000
8 | COc1cc(C(=O)NCc2ccco2)ccc1OC1CCN(CC(c2ccccc2)c2ccccc2)CC1 | 118 | 58.7 | > 10000
9 | CCc1c(C)c(=N)c2ccccc2n1C | 701 | 534 | > 100000
10 | C=C(C)CSc1nc(N)c2c3c(sc2n1)CN(CCC)CC3 | 799 | 383 | > 66300
11 | COCCCNc1nc2cc(OC)c(OC)cc2c2nc(-c3ccccc3)nn12 | 621 | 541 | > 100000
12 | CN1CCN(Cc2c(O)ccc3c(=O)c(Oc4ccc(C(C)(C)C)cc4)c(C(F)(F)F)oc23)CC1 | 1800 | 547 | > 100000
13 | CCOc1ccc(NC(=O)c2ccc(F)c(S(=O)(=O)NC3CCCC(C)C3C)c2)cc1 (stereo not given) | 1040 | 178 | 32200
14 | CN(C)c1ccc(C2N(C)c3ccccc3N2C)cc1 | 913 | 551 | > 100000
15 | Cc1n(C)c2ccccc2[n+]1CC(=O)c1ccccc1 | 114 | 547 | > 100000
16 | C=CCSc1nnc2c(n1)[nH]c1ccc(OCC)cc12 | 5620 | 549 | > 100000
17 | COc1ccc(CNCCN2CCN(c3ccccc3)C[C@@H]2Cc2ccc(O)cc2)cc1 | 52.1 | 54.9 | > 10000
18 | O=C1CN(C(=O)CCC2CCCCC2)C(c2ccc(F)cc2)c2cc(F)ccc2N1 (stereo not given) | 566 | 365 | 64400

Row | Structure (SMILES) | EC50 (Plasmodium falciparum [1]) [nM] | EC50 (Plasmodium falciparum [2]) [nM] | CC50 [3] [nM]
19 | OC(CNc1cccc2ccccc12)Cn1c2ccc(Cl)cc2c2cc(Cl)ccc21 (stereo not given) | 403 | 306 | 54200
20 | CC(C)(C[N+](C)(C)C)C1OC2CCCCC2C2C=CCCC21 (stereo not given) | 999 | 565 | > 100000
21 | O=C(NC1CC1)c1ccc(CSCc2ccccc2Cl)o1 | 503 | 562 | > 100000
22 | O=C(NCc1c(Cl)cccc1Sc1ccc(Cl)cc1)c1ccc2c(c1)CCO2 | 69.1 | 56.2 | > 10000
23 | O=C(c1ccc([N+](=O)[O-])cc1)c1ccc(Cl)c(Cl)c1 | 251 | 555 | > 100000
24 | Clc1ccc(Nc2nc(Nc3ccc(Cl)cc3)c3ccccc3n2)cc1 | 148 | 110 | 19600
25 | CN1C=CC(=Cc2sc3ccccc3[n+]2C)C=C1 | 208 | 558 | > 100000
26 | CCn1c(=NC(=O)c2cc(=O)c3ccccc3o2)sc2c(OC)ccc(OC)c21 | 1500 | 55.6 | > 10000
27 | CCOc1cc(Br)cc(C=C2NC(=S)NC2=O)c1O | > 3680 | 554 | > 100000
28 | Cc1ccn2c(NC(C)(C)CC(C)(C)C)c(-c3ccccc3OC(=O)C3C[C@H]3c3ccccc3)nc2c1 (stereo not given in full) | 727 | 55.3 | > 10000
29 | CCc1nc2nc(C)cc(Nc3ccc(F)c(Cl)c3)n2n1 | 543 | 547 | > 100000
30 | Oc1ccccc1C=Nc1ccccc1[Te]c1ccccc1N=Cc1ccccc1O | 3.49 | 3.14 | 552
31 | CC(C)(C)CC(C)(C)Nc1c(-c2ccccc2OC(=O)c2ccccc2Cl)nc2ccccn12 | 822 | 58.8 | > 10000
32 | Cc1ccc2c(C)nc(Nc3nc(C)cc(-c4ccccc4)n3)nc2c1 | 975 | 569 | > 100000
33 | Cc1cccc(NC(c2ccccc2F)c2ccc3cccnc3c2O)n1 (stereo not given) | 2940 | 331 | > 61800
34 | CCCOC(=O)C1=C(C)NC2=C(C(=O)CC(c3ccc(Cl)cc3)C2)C1c1ccc(Cl)cc1 (stereo not given) | 294 | 398 | > 69800
35 | CCCCC(=O)Oc1ccccc1-c1nc2cc(C)ccn2c1NC(C)(C)CC(C)(C)C | 854 | 57 | > 10000
